Experimental data from patent US12528778B2, “Microbiocidal derivatives” (SYNGENTA CROP PROTECTION AG, priority 2019, dated 2026).

Columns and labels:
[1] = system: Alternaria solani; experiment: Alternaria solani / tomato / leaf disc (early blight); assay type: in vivo; conditions: foliar, tomato leaf disks cv. Baby, inoculated 2 days after application, assessed 5-7 days after application, vs untreated control
Method: Example B1: Alternaria solani/Tomato/Leaf Disc (Early Blight) Tomato leaf disks cv. Baby are placed on agar in multiwell plates (24-well format) and sprayed with the formulated test compound diluted in water. The leaf disks are inoculated with a spore suspension of the fungus 2 days after application. The inoculated leaf disks are incubated at 23° C./21° C. […] […]-43, and P-44.

[2] = system: Glomerella lagenarium (Colletotrichum lagenarium); experiment: Glomerella lagenarium (Colletotrichum lagenarium) / liquid culture (anthracnose); assay type: cell-based; conditions: Colletotrichum orbiculare, PDB liquid culture, 24° C., growth inhibition measured photometrically 3-4 days after application, vs untreated control
Method: Example B2: Glomerella lagenarium (Colletotrichum lagenarium)/Liquid Culture (Anthracnose) Conidia of the fungus from cryogenic storage are directly mixed into nutrient broth (PDB potato dextrose broth). After placing a (DMSO) solution of test compound into a microtiter plate (96-well format), the nutrient broth containing the fungal spores is added. The test plates are incubated at 24° C. and the inhibition of growth is measured photometrically 3-4 days after application. […] […]-49, and P-50.

[3] = system: Blumeria graminis f. sp. tritici (Erysiphe graminis f. sp. tritici); experiment: Blumeria graminis f. sp. tritici / wheat / leaf disc preventative (powdery mildew on wheat); assay type: in vivo; conditions: foliar, wheat leaf segments cv. Kanzler, inoculated 1 day after application, assessed 6-8 days after application, vs untreated control
Method: Example B3: Blumeria graminis f. sp. tritici (Erysiphe graminis f. so. tritici)/Wheat/Leaf Disc Preventative (Powdery Mildew on Wheat) Wheat leaf segments cv. Kanzler are placed on agar in a multiwell plate (24-well format) and sprayed with the formulated test compound diluted in water. The leaf disks are inoculated by shaking powdery mildew infected plants above the test plates 1 day after application. The inoculated leaf disks are incubated at 20°° C. and 60% rh under a light regime of 24 h darkness followed by 12 h light/12 h darkness in a climate chamber and the activity of a compound is assessed as percent disease control compared to untreated when an appropriate level of disease damage appears on untreated check leaf segments (6-8 days after application). […]-45, and P-50.

[4] = system: Magnaporthe grisea (Pyricularia oryzae); experiment: whole plant or invertebrate; assay type: in vivo; conditions: foliar, read-out: control of Magnaporthe grisea
[5] = system: Monographella nivalis (Microdochium nivale); experiment: Monographella nivalis (Microdochium nivale) / liquid culture (foot rot cereals); assay type: cell-based; conditions: PDB liquid culture, 24° C., growth inhibition determined photometrically 4-5 days after application, vs untreated control
Method: Example B5: Monographella nivalis (Microdochium nivale)/Liquid Culture (Foot Rot Cereals) Conidia of the fungus from cryogenic storage are directly mixed into nutrient broth (PDB potato dextrose broth). After placing a (DMSO) solution of test compound into a microtiter plate (96-well format), the nutrient broth containing the fungal spores is added. The test plates are incubated at 24° C. and the inhibition of growth is determined photometrically 4-5 days after application. […] […]-49, and P-50.

[6] = system: Mycosphaerella arachidis (Cercospora arachidicola); experiment: Mycosphaerella arachidis (Cercospora arachidicola) / liquid culture (early leaf spot); assay type: cell-based; conditions: PDB liquid culture, 24° C., growth inhibition determined photometrically 4-5 days after application, vs untreated control
Method: Example B6: Mycosphaerella arachidis (Cercospora arachidicola)/Liquid Culture (Early Leaf Spot) Conidia of the fungus from cryogenic storage are directly mixed into nutrient broth (PDB potato dextrose broth). After placing a (DMSO) solution of test compound into a microtiter plate (96-well format), the nutrient broth containing the fungal spores is added. The test plates are incubated at 24° C. and the inhibition of growth is determined photometrically 4-5 days after application. […] […]-44, and P-48.

[7] = system: Mycosphaerella graminicola (Septoria tritici); experiment: Mycosphaerella graminicola (Septoria tritici) / liquid culture (Septoria blotch); assay type: cell-based; conditions: Zymoseptoria tritici, PDB liquid culture, 24° C., growth inhibition determined photometrically 4-5 days after application, vs untreated control
Method: Example B12: Mycosphaerella graminicola (Septoria tritici)/Liquid Culture (Septoria Blotch) Conidia of the fungus from cryogenic storage are directly mixed into nutrient broth (PDB potato dextrose broth). After placing a (DMSO) solution of test compound into a microtiter plate (96-well format), the nutrient broth containing the fungal spores is added. The test plates are incubated at 24° C. and the inhibition of growth is determined photometrically 4-5 days after application. […] […]-48, and P-49.

[8] = system: Puccinia recondita f. sp. tritici; experiment: Puccinia recondita f. sp. tritici / wheat / leaf disc preventative (brown rust); assay type: in vivo; conditions: foliar, wheat leaf segments cv. Kanzler, inoculated 1 day after application, assessed 7-9 days after application, vs untreated control
Method: Example B8: Puccinia recondita f. sp. tritici/Wheat/Leaf Disc Preventative (Brown rust) Wheat leaf segments cv. Kanzler are placed on agar in multiwell plates (24-well format) and sprayed with the formulated test compound diluted in water. The leaf disks are inoculated with a spore suspension of the fungus 1 day after application. The inoculated leaf segments are incubated at 19° C. and 75% rh under a light regime of 12 h light/12 h darkness in a climate cabinet and the activity of a compound is assessed as percent disease control compared to untreated when an appropriate level of disease damage appears in untreated check leaf segments (7-9 days after application).

COc1ncc(Nc2cc(F)cc(F)c2)nc1C(=O)NC1CC2CCOC21 (stereo not shown) [Compound P-28, 6-(3,5-difluoroanilino)-3-methoxy-N-(2-oxabicyclo[3.2.0]heptan-7-yl)pyrazine-2-carboxamide]
≥ 80%: pest or weed control at 200 ppm [1] | inhibition of growth at 20 ppm [2] | pest or weed control at 200 ppm [3] | pest or weed control at 200 ppm [4]

COc1ncc(Nc2cc(F)cc(F)c2)nc1C(=O)NC1COC(C2CC2)C1 (stereo not shown) [Compound P-24, N-(5-cyclopropyltetrahydrofuran-3-yl)-6-(3,5-difluoroanilino)-3-methoxy-pyrazine-2-carboxamide]
≥ 80%: inhibition of growth at 20 ppm [2] | pest or weed control at 200 ppm [3] | inhibition of growth at 20 ppm [5] | inhibition of growth at 20 ppm [6] | inhibition of growth at 20 ppm [7]

COc1ncc(Nc2cc(F)cc(F)c2)nc1C(=O)NCC1(C)CCOC1 (stereo not shown) [Compound P-21]
≥ 80%: inhibition of growth at 20 ppm [2] | pest or weed control at 200 ppm [3] | inhibition of growth at 20 ppm [5] | pest or weed control at 200 ppm [4] | inhibition of growth at 20 ppm [7]

COc1ncc(NCC2CC2)nc1C(=O)NC1CCC1(C)C (stereo not shown) [Compound P-9, 6-(cyclopropylmethylamino)-N-(2,2-dimethylcyclobutyl)-3-methoxy-pyrazine-2-carboxamide]
≥ 80%: pest or weed control at 200 ppm [1] | inhibition of growth at 20 ppm [2] | pest or weed control at 200 ppm [3] | inhibition of growth at 20 ppm [5] | inhibition of growth at 20 ppm [6] | pest or weed control at 200 ppm [8] | inhibition of growth at 20 ppm [7]

COc1ncc(Nc2cc(F)cc(F)c2)nc1C(=O)NC(C)CCCC(C)C (stereo not shown) [Compound P-40, 6-(3,5-difluoroanilino)-N-(1,5-dimethylhexyl)-3-methoxy-pyrazine-2-carboxamide]
≥ 80%: inhibition of growth at 20 ppm [2] | pest or weed control at 200 ppm [3] | inhibition of growth at 20 ppm [5] | inhibition of growth at 20 ppm [6] | pest or weed control at 200 ppm [8] | pest or weed control at 200 ppm [4] | inhibition of growth at 20 ppm [7]

COc1ncc(Nc2cc(F)nc(F)c2)nc1C(=O)NCC1(C(F)(F)F)CC1 [Compound P-35, 6-[(2,6-difluoro-4-pyridyl)amino]-3-methoxy-N-[[1-(trifluoromethyl)cyclopropyl]methyl] pyrazine-2-carboxamide]
≥ 80%: inhibition of growth at 20 ppm [2] | pest or weed control at 200 ppm [3] | pest or weed control at 200 ppm [4]

CC1(NC(=O)c2cncc(Nc3cc(F)cc(F)c3)n2)CCCC1 [Compound P-48, 6-(3,5-difluoroanilino)-N-(1-methylcyclopentyl) pyrazine-2-carboxamide]
≥ 80%: inhibition of growth at 20 ppm [2] | inhibition of growth at 20 ppm [5] | inhibition of growth at 20 ppm [6] | inhibition of growth at 20 ppm [7]

COc1ncc(Nc2cnsc2)nc1C(=O)NCc1ccc(Oc2ccccc2)cc1 [Compound P-13, 6-(isothiazol-4-ylamino)-3-methoxy-N-[(4-phenoxyphenyl)methyl] pyrazine-2-carboxamide]
≥ 80%: pest or weed control at 200 ppm [1] | inhibition of growth at 20 ppm [2] | inhibition of growth at 20 ppm [5] | inhibition of growth at 20 ppm [6] | pest or weed control at 200 ppm [4] | inhibition of growth at 20 ppm [7]

COc1ncc(Nc2cc(F)cc(F)c2)nc1C(=O)NCc1ccc(Oc2ccccc2)cc1 [Compound P-30]
≥ 80%: pest or weed control at 200 ppm [1] | inhibition of growth at 20 ppm [2] | pest or weed control at 200 ppm [3] | inhibition of growth at 20 ppm [5] | inhibition of growth at 20 ppm [6] | pest or weed control at 200 ppm [4] | inhibition of growth at 20 ppm [7]

COc1ncc(NC2CCCC2)nc1C(=O)NC1CCC1(C)C (stereo not shown) [Compound P-1, 6-(cyclopentylamino)-N-(2,2-dimethylcyclobutyl)-3-methoxy-pyrazine-2-carboxamide]
≥ 80%: inhibition of growth at 20 ppm [2] | inhibition of growth at 20 ppm [5] | inhibition of growth at 20 ppm [6] | inhibition of growth at 20 ppm [7]

COc1ncc(Nc2cc(F)cc(F)c2)nc1C(=O)NC1(C)CC1 [Compound P-37, 6-(3,5-difluoroanilino)-3-methoxy-N-(1-methylcyclopropyl) pyrazine-2-carboxamide]
≥ 80%: pest or weed control at 200 ppm [1] | inhibition of growth at 20 ppm [2] | pest or weed control at 200 ppm [3] | inhibition of growth at 20 ppm [5] | pest or weed control at 200 ppm [8] | pest or weed control at 200 ppm [4] | inhibition of growth at 20 ppm [7]

COc1ncc(Nc2cc(F)cc(F)c2)nc1C(=O)NCc1cccc2c1OC(F)(F)O2 [Compound P-29, 6-(3,5-difluoroanilino)-N-[(2,2-difluoro-1.3-benzodioxol-4-yl)methyl]-3-methoxy-pyrazine-2-carboxamide]
≥ 80%: inhibition of growth at 20 ppm [2] | inhibition of growth at 20 ppm [5] | inhibition of growth at 20 ppm [6] | pest or weed control at 200 ppm [8] | pest or weed control at 200 ppm [4] | inhibition of growth at 20 ppm [7]

COc1ncc(Nc2cc(F)nc(F)c2)nc1C(=O)NCC1(C)CCOC2(CCC2)C1 (stereo not shown) [Compound P-34]
≥ 80%: inhibition of growth at 20 ppm [2] | pest or weed control at 200 ppm [8] | pest or weed control at 200 ppm [4]

Cc1ncc(Nc2cc(F)nc(F)c2)nc1C(=O)NC1CCC1(C)C (stereo not shown) [Compound P-50, 6-[(2,6-difluoro-4-pyridyl)amino]-N-(2,2-dimethylcyclobutyl)-3-methyl-pyrazine-2-carboxamide]
≥ 80%: inhibition of growth at 20 ppm [2] | pest or weed control at 200 ppm [3] | inhibition of growth at 20 ppm [5] | pest or weed control at 200 ppm [4]

COc1ncc(Nc2cc(F)cc(F)c2)nc1C(=O)NC1C2CCOC2C1(C)C (stereo not shown) [Compound P-16, 6-(3,5-difluoroanilino)-N-(7,7-dimethyl-2-oxabicyclo[3.2.0]heptan-6-yl)-3-methoxy-pyrazine-2-carboxamide]
≥ 80%: pest or weed control at 200 ppm [1] | inhibition of growth at 20 ppm [2] | pest or weed control at 200 ppm [3] | inhibition of growth at 20 ppm [5] | inhibition of growth at 20 ppm [6] | pest or weed control at 200 ppm [4] | inhibition of growth at 20 ppm [7]
